In ChEMBL document CHEMBL3991601, “The target landscape of clinical kinase drugs” (Science, 2017):
The source made the active and inactive calls.

What follows are compounds tested against Adenosine kinase (Homo sapiens, UniProt P55263).
Further: in the data inactive means no Kd found up to 30 µM.

Sequence of Adenosine kinase (P55263 whole entry): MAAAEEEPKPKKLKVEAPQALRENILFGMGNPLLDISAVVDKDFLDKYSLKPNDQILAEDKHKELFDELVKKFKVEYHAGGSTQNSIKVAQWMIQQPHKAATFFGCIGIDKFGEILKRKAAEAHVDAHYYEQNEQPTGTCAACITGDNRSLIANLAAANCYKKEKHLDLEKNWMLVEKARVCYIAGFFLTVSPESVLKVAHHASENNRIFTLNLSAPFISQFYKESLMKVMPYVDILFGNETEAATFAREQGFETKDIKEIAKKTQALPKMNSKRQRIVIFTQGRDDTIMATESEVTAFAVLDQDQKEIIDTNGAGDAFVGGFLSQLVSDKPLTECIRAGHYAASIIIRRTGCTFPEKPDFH

Structure (SMILES)	Kd
COC(=O)[C@@]1(O)C[C@H]2O[C@]1(C)n1c3ccccc3c3c4c(c5c6ccccc6n2c5c31)C(=O)NC4 [K-252A]	> 30 µM (inactive)
COc1cc2nccc(Oc3ccc(NC(=O)NC4CC4)c(Cl)c3)c2cc1C(N)=O [LENVATINIB]	> 30 µM (inactive)
O=C(O)[C@]1(Cc2cccc(Nc3nccs3)n2)CC[C@@H](Oc2cccc(Cl)c2F)CC1 [MK-5108]	> 30 µM (inactive)

The compounds below were run against Chromodomain-helicase-DNA-binding protein 4 (Homo sapiens, UniProt Q14839).

Structure (SMILES)	Kd
COC(=O)[C@@]1(O)C[C@H]2O[C@]1(C)n1c3ccccc3c3c4c(c5c6ccccc6n2c5c31)C(=O)NC4 [K-252A]	> 30 µM (inactive)
COc1cc2nccc(Oc3ccc(NC(=O)NC4CC4)c(Cl)c3)c2cc1C(N)=O [LENVATINIB]	> 30 µM (inactive)
O=C(O)[C@]1(Cc2cccc(Nc3nccs3)n2)CC[C@@H](Oc2cccc(Cl)c2F)CC1 [MK-5108]	> 30 µM (inactive)

These compounds were tested against Ephrin type-A receptor 2 (Homo sapiens, UniProt P29317).

Structure (SMILES)	Kd
COC(=O)[C@@]1(O)C[C@H]2O[C@]1(C)n1c3ccccc3c3c4c(c5c6ccccc6n2c5c31)C(=O)NC4 [K-252A]	> 30 µM (inactive)
COc1cc2nccc(Oc3ccc(NC(=O)NC4CC4)c(Cl)c3)c2cc1C(N)=O [LENVATINIB]	> 30 µM (inactive)

Each compound was assayed against T1, Electron transfer flavoprotein subunit beta (Homo sapiens, UniProt P38117).
T1 sequence (P38117 whole entry): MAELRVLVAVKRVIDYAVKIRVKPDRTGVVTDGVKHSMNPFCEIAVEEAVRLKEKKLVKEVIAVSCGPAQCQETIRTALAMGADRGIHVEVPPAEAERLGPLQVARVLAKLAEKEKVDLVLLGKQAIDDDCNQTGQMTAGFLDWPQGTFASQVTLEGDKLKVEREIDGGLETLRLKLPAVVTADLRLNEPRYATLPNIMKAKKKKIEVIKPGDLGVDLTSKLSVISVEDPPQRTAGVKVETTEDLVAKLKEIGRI

Structure (SMILES)	Kd
COC(=O)[C@@]1(O)C[C@H]2O[C@]1(C)n1c3ccccc3c3c4c(c5c6ccccc6n2c5c31)C(=O)NC4 [K-252A]	> 30 µM (inactive)
COc1cc2nccc(Oc3ccc(NC(=O)NC4CC4)c(Cl)c3)c2cc1C(N)=O [LENVATINIB]	> 30 µM (inactive)
O=C(O)[C@]1(Cc2cccc(Nc3nccs3)n2)CC[C@@H](Oc2cccc(Cl)c2F)CC1 [MK-5108]	> 30 µM (inactive)

Each compound was assayed against T2, Phenylalanine--tRNA ligase beta subunit (Homo sapiens, UniProt Q9NSD9).
T2 sequence (Q9NSD9 whole entry): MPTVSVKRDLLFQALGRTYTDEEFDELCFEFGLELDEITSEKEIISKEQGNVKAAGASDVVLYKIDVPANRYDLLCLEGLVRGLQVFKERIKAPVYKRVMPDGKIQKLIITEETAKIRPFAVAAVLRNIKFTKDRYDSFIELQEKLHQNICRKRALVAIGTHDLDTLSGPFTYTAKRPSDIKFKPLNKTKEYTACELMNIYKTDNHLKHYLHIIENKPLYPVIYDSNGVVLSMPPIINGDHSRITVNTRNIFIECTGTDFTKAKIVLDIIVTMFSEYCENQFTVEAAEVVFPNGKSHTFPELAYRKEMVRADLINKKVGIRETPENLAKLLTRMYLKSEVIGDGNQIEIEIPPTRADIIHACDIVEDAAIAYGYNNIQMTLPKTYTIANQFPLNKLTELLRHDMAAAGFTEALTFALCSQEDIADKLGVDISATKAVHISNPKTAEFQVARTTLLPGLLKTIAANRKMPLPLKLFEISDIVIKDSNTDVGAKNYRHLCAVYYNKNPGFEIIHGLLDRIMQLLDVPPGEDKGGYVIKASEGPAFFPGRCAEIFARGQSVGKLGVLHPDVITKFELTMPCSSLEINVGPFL

Structure (SMILES)	Kd
COC(=O)[C@@]1(O)C[C@H]2O[C@]1(C)n1c3ccccc3c3c4c(c5c6ccccc6n2c5c31)C(=O)NC4 [K-252A]	> 30 µM (inactive)
COc1cc2nccc(Oc3ccc(NC(=O)NC4CC4)c(Cl)c3)c2cc1C(N)=O [LENVATINIB]	> 30 µM (inactive)
O=C(O)[C@]1(Cc2cccc(Nc3nccs3)n2)CC[C@@H](Oc2cccc(Cl)c2F)CC1 [MK-5108]	> 30 µM (inactive)

These compounds were tested against Putative heat shock protein HSP 90-beta 2 (Homo sapiens, UniProt Q58FF8).
Sequence of Putative heat shock protein HSP 90-beta 2 (Q58FF8 whole entry): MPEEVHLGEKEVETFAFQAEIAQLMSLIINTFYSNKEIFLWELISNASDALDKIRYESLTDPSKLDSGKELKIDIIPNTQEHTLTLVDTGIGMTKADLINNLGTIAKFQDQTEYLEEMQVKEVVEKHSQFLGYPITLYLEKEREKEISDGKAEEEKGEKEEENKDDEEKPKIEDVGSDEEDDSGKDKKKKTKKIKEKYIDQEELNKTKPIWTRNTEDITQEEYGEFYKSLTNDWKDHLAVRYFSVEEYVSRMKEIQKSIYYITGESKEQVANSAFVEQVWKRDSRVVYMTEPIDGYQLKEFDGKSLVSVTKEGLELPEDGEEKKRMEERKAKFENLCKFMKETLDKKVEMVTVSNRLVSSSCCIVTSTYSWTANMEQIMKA

Structure (SMILES)	Kd
COC(=O)[C@@]1(O)C[C@H]2O[C@]1(C)n1c3ccccc3c3c4c(c5c6ccccc6n2c5c31)C(=O)NC4 [K-252A]	> 30 µM (inactive)
COc1cc2nccc(Oc3ccc(NC(=O)NC4CC4)c(Cl)c3)c2cc1C(N)=O [LENVATINIB]	> 30 µM (inactive)
O=C(O)[C@]1(Cc2cccc(Nc3nccs3)n2)CC[C@@H](Oc2cccc(Cl)c2F)CC1 [MK-5108]	> 30 µM (inactive)

What follows are compounds tested against Inosine-5'-monophosphate dehydrogenase 2 (Homo sapiens, UniProt P12268).

Structure (SMILES)	Kd
COC(=O)[C@@]1(O)C[C@H]2O[C@]1(C)n1c3ccccc3c3c4c(c5c6ccccc6n2c5c31)C(=O)NC4 [K-252A]	> 30 µM (inactive)
COc1cc2nccc(Oc3ccc(NC(=O)NC4CC4)c(Cl)c3)c2cc1C(N)=O [LENVATINIB]	> 30 µM (inactive)
O=C(O)[C@]1(Cc2cccc(Nc3nccs3)n2)CC[C@@H](Oc2cccc(Cl)c2F)CC1 [MK-5108]	> 30 µM (inactive)

Each compound was assayed against Interleukin-1 receptor-associated kinase 1 (Homo sapiens, UniProt P51617).

Structure (SMILES)	Kd
COC(=O)[C@@]1(O)C[C@H]2O[C@]1(C)n1c3ccccc3c3c4c(c5c6ccccc6n2c5c31)C(=O)NC4 [K-252A]	> 30 µM (inactive)
O=C(O)[C@]1(Cc2cccc(Nc3nccs3)n2)CC[C@@H](Oc2cccc(Cl)c2F)CC1 [MK-5108]	1.58 µM (active)

What follows are compounds tested against Mitogen-activated protein kinase kinase kinase 4 (Homo sapiens, UniProt Q9Y6R4).
Sequence of Mitogen-activated protein kinase kinase kinase 4 (Q9Y6R4 whole entry): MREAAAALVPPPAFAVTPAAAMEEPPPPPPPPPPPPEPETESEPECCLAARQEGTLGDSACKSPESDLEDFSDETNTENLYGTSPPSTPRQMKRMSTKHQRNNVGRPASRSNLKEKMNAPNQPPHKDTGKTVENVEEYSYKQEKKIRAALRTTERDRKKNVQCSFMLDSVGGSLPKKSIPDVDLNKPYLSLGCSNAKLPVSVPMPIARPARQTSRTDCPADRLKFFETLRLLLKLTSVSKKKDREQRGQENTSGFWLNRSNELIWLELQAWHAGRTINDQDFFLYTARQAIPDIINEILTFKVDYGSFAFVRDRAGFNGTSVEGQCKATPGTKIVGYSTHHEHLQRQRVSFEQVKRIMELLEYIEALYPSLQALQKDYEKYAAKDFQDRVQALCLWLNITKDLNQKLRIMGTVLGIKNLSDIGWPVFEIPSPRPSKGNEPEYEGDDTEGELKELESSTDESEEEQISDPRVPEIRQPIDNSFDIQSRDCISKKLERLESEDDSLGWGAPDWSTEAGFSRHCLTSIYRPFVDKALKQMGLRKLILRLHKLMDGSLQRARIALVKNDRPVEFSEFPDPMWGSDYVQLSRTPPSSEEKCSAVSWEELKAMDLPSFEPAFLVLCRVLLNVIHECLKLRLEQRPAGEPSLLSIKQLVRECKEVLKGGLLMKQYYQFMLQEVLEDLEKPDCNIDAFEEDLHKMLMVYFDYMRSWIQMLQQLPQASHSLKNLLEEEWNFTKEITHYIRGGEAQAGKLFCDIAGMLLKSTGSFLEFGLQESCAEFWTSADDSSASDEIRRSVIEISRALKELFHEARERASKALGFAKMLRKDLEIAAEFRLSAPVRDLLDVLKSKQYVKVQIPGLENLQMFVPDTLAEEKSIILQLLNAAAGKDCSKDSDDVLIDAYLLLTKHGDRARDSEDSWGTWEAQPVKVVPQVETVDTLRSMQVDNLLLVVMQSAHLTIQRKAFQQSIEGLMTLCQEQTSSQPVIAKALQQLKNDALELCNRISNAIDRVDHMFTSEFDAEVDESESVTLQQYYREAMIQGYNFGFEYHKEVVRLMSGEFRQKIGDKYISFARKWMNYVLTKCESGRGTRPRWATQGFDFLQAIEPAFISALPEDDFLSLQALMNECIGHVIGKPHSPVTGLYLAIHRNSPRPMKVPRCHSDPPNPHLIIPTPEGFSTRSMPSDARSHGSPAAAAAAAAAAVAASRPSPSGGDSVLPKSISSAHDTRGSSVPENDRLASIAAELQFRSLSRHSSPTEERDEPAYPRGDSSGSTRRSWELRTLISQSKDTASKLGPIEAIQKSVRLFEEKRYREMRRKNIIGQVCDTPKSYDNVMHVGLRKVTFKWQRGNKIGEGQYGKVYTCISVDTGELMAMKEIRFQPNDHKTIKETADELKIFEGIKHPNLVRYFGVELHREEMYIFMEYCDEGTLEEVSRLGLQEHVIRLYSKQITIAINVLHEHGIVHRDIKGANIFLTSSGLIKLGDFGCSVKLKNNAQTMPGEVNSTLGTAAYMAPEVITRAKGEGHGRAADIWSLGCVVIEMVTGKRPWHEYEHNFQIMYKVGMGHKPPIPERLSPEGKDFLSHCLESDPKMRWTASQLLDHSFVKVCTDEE

Structure (SMILES)	Kd
COC(=O)[C@@]1(O)C[C@H]2O[C@]1(C)n1c3ccccc3c3c4c(c5c6ccccc6n2c5c31)C(=O)NC4 [K-252A]	> 30 µM (inactive)
COc1cc2nccc(Oc3ccc(NC(=O)NC4CC4)c(Cl)c3)c2cc1C(N)=O [LENVATINIB]	> 30 µM (inactive)
O=C(O)[C@]1(Cc2cccc(Nc3nccs3)n2)CC[C@@H](Oc2cccc(Cl)c2F)CC1 [MK-5108]	> 30 µM (inactive)

Each compound was assayed against Myosin-14 (Homo sapiens, UniProt Q7Z406).
Sequence of Myosin-14 (Q7Z406 whole entry): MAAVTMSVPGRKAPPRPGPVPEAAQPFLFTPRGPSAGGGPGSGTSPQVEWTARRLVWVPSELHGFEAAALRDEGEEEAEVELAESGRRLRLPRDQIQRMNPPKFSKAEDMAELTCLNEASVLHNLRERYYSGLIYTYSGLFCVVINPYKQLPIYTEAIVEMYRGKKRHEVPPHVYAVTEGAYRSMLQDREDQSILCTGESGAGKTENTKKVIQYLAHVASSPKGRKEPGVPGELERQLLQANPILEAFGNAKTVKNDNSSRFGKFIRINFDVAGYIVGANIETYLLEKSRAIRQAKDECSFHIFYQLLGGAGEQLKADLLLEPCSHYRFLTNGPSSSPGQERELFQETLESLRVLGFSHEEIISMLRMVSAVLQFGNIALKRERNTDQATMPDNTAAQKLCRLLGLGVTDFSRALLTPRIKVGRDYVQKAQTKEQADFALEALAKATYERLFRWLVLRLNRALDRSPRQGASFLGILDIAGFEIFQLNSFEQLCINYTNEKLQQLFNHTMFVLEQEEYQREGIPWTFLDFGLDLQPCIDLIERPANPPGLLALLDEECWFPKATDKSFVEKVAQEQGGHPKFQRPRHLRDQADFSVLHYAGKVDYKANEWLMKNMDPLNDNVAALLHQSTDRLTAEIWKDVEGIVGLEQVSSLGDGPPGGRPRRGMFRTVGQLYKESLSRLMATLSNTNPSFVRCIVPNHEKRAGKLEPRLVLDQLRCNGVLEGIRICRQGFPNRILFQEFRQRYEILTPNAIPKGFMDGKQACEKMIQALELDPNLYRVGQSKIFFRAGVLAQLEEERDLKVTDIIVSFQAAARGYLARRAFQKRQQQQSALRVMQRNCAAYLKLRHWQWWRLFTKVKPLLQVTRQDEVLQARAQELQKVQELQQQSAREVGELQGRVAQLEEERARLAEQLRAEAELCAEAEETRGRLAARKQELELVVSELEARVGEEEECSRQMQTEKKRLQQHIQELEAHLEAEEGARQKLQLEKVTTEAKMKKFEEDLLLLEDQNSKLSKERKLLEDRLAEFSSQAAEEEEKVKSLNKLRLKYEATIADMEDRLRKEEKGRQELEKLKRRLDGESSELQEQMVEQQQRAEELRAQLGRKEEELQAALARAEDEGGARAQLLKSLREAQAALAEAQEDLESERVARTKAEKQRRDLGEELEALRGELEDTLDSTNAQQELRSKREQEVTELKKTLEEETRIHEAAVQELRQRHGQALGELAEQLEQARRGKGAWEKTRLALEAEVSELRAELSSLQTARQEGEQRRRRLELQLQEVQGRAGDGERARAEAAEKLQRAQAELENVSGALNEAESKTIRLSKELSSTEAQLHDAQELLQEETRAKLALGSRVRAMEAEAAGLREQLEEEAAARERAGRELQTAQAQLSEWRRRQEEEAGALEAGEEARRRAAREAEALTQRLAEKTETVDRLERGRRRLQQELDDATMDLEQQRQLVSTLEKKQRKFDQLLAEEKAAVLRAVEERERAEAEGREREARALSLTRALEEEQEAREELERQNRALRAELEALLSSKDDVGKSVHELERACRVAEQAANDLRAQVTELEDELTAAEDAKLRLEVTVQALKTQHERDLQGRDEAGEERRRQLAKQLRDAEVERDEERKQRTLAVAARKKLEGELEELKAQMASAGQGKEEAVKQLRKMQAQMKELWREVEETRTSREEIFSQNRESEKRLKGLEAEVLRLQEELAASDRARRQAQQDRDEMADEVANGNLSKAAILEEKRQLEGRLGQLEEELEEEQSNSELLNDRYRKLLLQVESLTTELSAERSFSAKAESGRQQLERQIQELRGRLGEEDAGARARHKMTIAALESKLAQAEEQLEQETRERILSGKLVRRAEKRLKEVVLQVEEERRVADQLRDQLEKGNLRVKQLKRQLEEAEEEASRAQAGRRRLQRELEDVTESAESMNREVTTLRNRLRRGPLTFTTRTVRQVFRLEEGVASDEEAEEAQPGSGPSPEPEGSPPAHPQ

Structure (SMILES)	Kd
COC(=O)[C@@]1(O)C[C@H]2O[C@]1(C)n1c3ccccc3c3c4c(c5c6ccccc6n2c5c31)C(=O)NC4 [K-252A]	> 30 µM (inactive)
COc1cc2nccc(Oc3ccc(NC(=O)NC4CC4)c(Cl)c3)c2cc1C(N)=O [LENVATINIB]	> 30 µM (inactive)
O=C(O)[C@]1(Cc2cccc(Nc3nccs3)n2)CC[C@@H](Oc2cccc(Cl)c2F)CC1 [MK-5108]	> 30 µM (inactive)

Each compound was assayed against Protein kinase C alpha type (Homo sapiens, UniProt P17252).

Structure (SMILES)	Kd
COc1cc2nccc(Oc3ccc(NC(=O)NC4CC4)c(Cl)c3)c2cc1C(N)=O [LENVATINIB]	> 30 µM (inactive)
O=C(O)[C@]1(Cc2cccc(Nc3nccs3)n2)CC[C@@H](Oc2cccc(Cl)c2F)CC1 [MK-5108]	> 30 µM (inactive)

What follows are compounds tested against 26S proteasome regulatory subunit 6B (Homo sapiens, UniProt P43686).

Structure (SMILES)	Kd
COC(=O)[C@@]1(O)C[C@H]2O[C@]1(C)n1c3ccccc3c3c4c(c5c6ccccc6n2c5c31)C(=O)NC4 [K-252A]	> 30 µM (inactive)
COc1cc2nccc(Oc3ccc(NC(=O)NC4CC4)c(Cl)c3)c2cc1C(N)=O [LENVATINIB]	> 30 µM (inactive)
O=C(O)[C@]1(Cc2cccc(Nc3nccs3)n2)CC[C@@H](Oc2cccc(Cl)c2F)CC1 [MK-5108]	> 30 µM (inactive)

What follows are compounds tested against T3, Serine/threonine-protein kinase STK11 (Homo sapiens, UniProt Q15831).
T3 sequence (Q15831 whole entry): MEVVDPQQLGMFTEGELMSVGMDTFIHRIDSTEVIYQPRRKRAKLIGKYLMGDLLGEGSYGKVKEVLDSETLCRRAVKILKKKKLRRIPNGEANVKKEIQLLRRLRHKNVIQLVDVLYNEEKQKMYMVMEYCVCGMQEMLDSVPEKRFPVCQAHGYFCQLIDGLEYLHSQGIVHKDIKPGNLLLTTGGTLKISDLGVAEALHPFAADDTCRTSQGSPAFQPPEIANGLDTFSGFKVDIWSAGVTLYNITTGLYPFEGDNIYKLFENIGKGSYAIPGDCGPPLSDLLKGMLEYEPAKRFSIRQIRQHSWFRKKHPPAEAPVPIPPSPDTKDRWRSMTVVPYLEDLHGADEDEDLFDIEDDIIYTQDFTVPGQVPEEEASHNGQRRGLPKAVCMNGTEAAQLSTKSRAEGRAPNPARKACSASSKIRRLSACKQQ

Structure (SMILES)	Kd
COC(=O)[C@@]1(O)C[C@H]2O[C@]1(C)n1c3ccccc3c3c4c(c5c6ccccc6n2c5c31)C(=O)NC4 [K-252A]	> 30 µM (inactive)
COc1cc2nccc(Oc3ccc(NC(=O)NC4CC4)c(Cl)c3)c2cc1C(N)=O [LENVATINIB]	> 30 µM (inactive)
O=C(O)[C@]1(Cc2cccc(Nc3nccs3)n2)CC[C@@H](Oc2cccc(Cl)c2F)CC1 [MK-5108]	> 30 µM (inactive)

Each compound was assayed against Wee1-like protein kinase (Homo sapiens, UniProt P30291).
Sequence of Wee1-like protein kinase (P30291 whole entry): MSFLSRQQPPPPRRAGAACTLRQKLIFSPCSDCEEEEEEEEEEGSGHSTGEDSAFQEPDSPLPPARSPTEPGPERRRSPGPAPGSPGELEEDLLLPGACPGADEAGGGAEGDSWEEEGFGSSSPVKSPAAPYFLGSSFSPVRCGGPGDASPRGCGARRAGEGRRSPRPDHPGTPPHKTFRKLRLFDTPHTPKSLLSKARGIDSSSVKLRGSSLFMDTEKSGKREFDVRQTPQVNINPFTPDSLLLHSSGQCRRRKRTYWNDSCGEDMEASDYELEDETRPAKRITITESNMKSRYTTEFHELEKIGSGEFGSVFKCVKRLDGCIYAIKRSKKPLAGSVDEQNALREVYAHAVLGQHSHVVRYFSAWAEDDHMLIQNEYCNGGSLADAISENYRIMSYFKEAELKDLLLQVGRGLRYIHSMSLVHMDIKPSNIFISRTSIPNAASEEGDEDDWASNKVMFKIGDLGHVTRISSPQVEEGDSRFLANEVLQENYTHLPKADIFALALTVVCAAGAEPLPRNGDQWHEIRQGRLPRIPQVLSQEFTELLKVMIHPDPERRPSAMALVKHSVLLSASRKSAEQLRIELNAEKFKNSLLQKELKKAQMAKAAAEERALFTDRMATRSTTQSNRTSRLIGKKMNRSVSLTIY

Structure (SMILES)	Kd
COC(=O)[C@@]1(O)C[C@H]2O[C@]1(C)n1c3ccccc3c3c4c(c5c6ccccc6n2c5c31)C(=O)NC4 [K-252A]	> 30 µM (inactive)
COc1cc2nccc(Oc3ccc(NC(=O)NC4CC4)c(Cl)c3)c2cc1C(N)=O [LENVATINIB]	> 30 µM (inactive)
O=C(O)[C@]1(Cc2cccc(Nc3nccs3)n2)CC[C@@H](Oc2cccc(Cl)c2F)CC1 [MK-5108]	> 30 µM (inactive)

What follows are compounds tested against T4, Tyrosine--tRNA ligase, cytoplasmic (Homo sapiens, UniProt P54577).
T4 sequence (P54577 whole entry): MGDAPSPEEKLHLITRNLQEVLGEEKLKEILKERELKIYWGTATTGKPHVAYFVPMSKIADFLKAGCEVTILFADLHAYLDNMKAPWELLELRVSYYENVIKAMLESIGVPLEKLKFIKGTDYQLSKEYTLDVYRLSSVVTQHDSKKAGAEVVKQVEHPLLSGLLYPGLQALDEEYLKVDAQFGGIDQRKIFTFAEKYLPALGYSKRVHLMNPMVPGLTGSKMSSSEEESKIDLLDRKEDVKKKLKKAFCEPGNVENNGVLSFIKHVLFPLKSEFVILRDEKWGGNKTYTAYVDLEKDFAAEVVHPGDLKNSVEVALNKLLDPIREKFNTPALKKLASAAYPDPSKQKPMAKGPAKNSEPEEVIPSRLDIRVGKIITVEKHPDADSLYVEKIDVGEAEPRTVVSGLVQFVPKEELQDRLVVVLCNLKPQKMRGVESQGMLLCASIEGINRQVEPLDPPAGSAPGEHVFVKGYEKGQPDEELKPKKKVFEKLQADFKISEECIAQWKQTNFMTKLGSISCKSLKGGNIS

Structure (SMILES)	Kd
COC(=O)[C@@]1(O)C[C@H]2O[C@]1(C)n1c3ccccc3c3c4c(c5c6ccccc6n2c5c31)C(=O)NC4 [K-252A]	> 30 µM (inactive)
COc1cc2nccc(Oc3ccc(NC(=O)NC4CC4)c(Cl)c3)c2cc1C(N)=O [LENVATINIB]	> 30 µM (inactive)
O=C(O)[C@]1(Cc2cccc(Nc3nccs3)n2)CC[C@@H](Oc2cccc(Cl)c2F)CC1 [MK-5108]	> 30 µM (inactive)
